Common to all, as to type: cell-based
Experiment [1] concerns EMT, angiogenesis and pro-tumour inflammation genes (N-cadherin, cytokeratin, B1-integrin, VEGF, IL6, IL1b, E-cadherin). The experiment can be described thus: qRT-PCR, mRNA levels of EMT, angiogenesis and inflammatory regulators in TNBC cell lines (FIG. 11). The text has this: qRT-PCR: Total RNA was isolated from cells using TRIZOL and/or the miRNeasy mini kit (Qiagen). We carried out cDNA synthesis as previously described by Green, D., Eyre, H., Singh, A. et al (Targeting the MAPK7/MMP9 axis for metastasis in primary bone cancer. Oncogene 39, 5553-5569 (2020)). We performed qPCR using the SYBR Green I core kit (Eurogentec). PCR products were detected in the ABI PRISM® 7700 sequence detection system (Thermo Fisher Scientific). We analysed results using the […]. Gene expression was normalised to PGK1 or ACTB.
Relative mRNA levels, compared to internal control PGK1 or ACTB, in three triple negative breast cancer cell lines: MDA-MB-231, MDA-MB-468 and SUM159.

The test system of experiment [2] is TNBC cells (MDA-MB-231, MDA-MB-468 and SUM159). The experiment can be described thus: Immunofluorescence, morphology of TNBC cells (FIG. 10). As to conditions: 1 μM OS1 or 2.5 μM AX15836; MDA-MB-231, MDA-MB-468, SUM159. On the procedure:
(§1) Cells were seeded and treated. Media was aspirated, cells were washed with PBS and subsequently fixed in 10% formalin for 10 minutes. Fixed cells were washed in PBS and then permeablised with 0.1% (v/v) Triton-100 in PBS for 10 minutes. Cells were washed with PBS and the non-specific binding sites were blocked by incubating with 1% BSA for 30 minutes. Targets of interested were identified by incubating with 100 μl of primary antibody diluted in 1% BSA (see table) overnight at 4° C. After washing with PBS, samples were further incubated with species specific secondary antibody coupled to fluorescent tags (see antibody table) for 1 hour in the dark at room temperature. Some samples were further incubated with 100 μl of 1:200 phalloidin (Invitrogen, A12381) in 1% BSA for 2 hours at room temperature to identify actin filament structures. The EZ-slides casing was dismantled as described in manufacturer's instruction and slides were washed in distilled H2O. Samples were incubated with one drop of Mounting Medium with DAPI (abcam) for 5 minutes in the dark at room temperature to visualise the nuclei. A coverslip was added to each slide and allowed to dry at room temperature. Images were acquired on a 3D-Histech Pannoramic-250 microscope slide-scanner using a 20×/0.80 Plan Apochromat objective (Zeiss) and the DAPI, FITC and TRITC filter sets. […] Images were then processed and analysed using ImageJ. […]

In experiment [3] the target is T1, ERK5 (Homo sapiens, UniProt Q13164). In words: Immunofluorescence, ERK5 staining in TNBC cells (FIG. 10). Also on record: endogenous in cells; host or cells: MDA-MB-231, MDA-MB-468, SUM159. As to conditions: 1 μM OS1, TNBC cell lines. On the procedure: as §1
Experiment [4] concerns the target T1, ERK5. In words: Immunoblotting, comparison with Example 7 of WO2021061894 in MDA-MB-468 cells (FIGS. 12 and 13): ERK5. Also on record: endogenous in cells; host or cells: MDA-MB-468. As to conditions: 48 hours after a single dose, relative to b-actin. The method, then:
(§2) We extracted proteins in RIPA assay buffer containing protease and phosphatase inhibitors. We resolved extracts (30 μg) by SDS/PAGE and electrophoretically transferred to an Immun-Blot® PVDF membrane (Bio-Rad). Membranes were saturated in 3% non-fat dry milk or 3% BSA and probed overnight at 4° C. with antibodies (1:1,000 dilution unless otherwise indicated) to ERK5, BRD4, MEK5 and β-actin. We detected immunocomplexes by enhanced chemiluminescence with IgG coupled to horseradish peroxidase as the secondary anti-rabbit and anti-mouse antibodies (Abcam).
(§3) OS1 and OS11 degrade EKR5 at lower concentrations than Comparative Example 7. OS1 is efficacious at degrading ERK5 at doses of 0.1 μM and OS11 at 0.01 μM. In contrast, a dose of 5 μM of Comparative Example 7 is required to achieve analogous ERK5 degradation to 0.1 μM OS1 or 0.01 μM OS11.

Experiment [5] addresses T2, BRD4 (Homo sapiens, UniProt O60885). The experiment can be described thus: Repeated dosing of OS1 up to 2 weeks, immunoblotting (FIG. 9): BRD4. On the set-up: endogenous in cells. Conditions: 1 μM every 48 h for up to two weeks, TNBC cell lines. The method, then: as §2
For experiment [6], the target named is T2, BRD4. In words: Immunoblotting, specificity testing in 3 TNBC cell lines (FIG. 8): BRD4 levels. On the set-up: endogenous in cells. Conditions: range of doses. On the procedure:
(§4) We extracted proteins in RIPA assay buffer containing protease and phosphatase inhibitors. We resolved extracts (30 μg) by SDS/PAGE and electrophoretically transferred to an Immun-Blot® PVDF membrane (Bio-Rad). Membranes were saturated in 3% non-fat dry milk or 3% BSA and probed overnight at 4° C. with antibodies (1:1,000 dilution unless otherwise indicated) to ERK5, P-ERK5, ERK1/2, BRD4, MEK5 and β-actin. We detected immunocomplexes by enhanced chemiluminescence with IgG coupled to horseradish peroxidase as the secondary anti-rabbit and anti-mouse antibodies (Abcam).
(§5) Left hand side panels are Western blot images, showing the relative expression of proteins in response to a range of doses of OS1. Right hand side panels are graphs quantifying the western blot images to show ERK5, phospho-ERK5, ERK1/2 and BRD4 protein levels relative to the loading control β-actin.

Experiment [7] deals with ERK1/2. The experiment can be described thus: Immunoblotting, specificity testing in 3 TNBC cell lines (FIG. 8): ERK1/2 levels. As to conditions: range of doses. The method, then: as §4, §5
For orientation: Immunoblotting shows a protein as a band on a membrane.

For experiment [8], the system named is ERK1/2. The experiment can be described thus: Repeated dosing of OS1 up to 2 weeks, immunoblotting (FIG. 9): ERK1/2. Conditions: 1 μM every 48 h for up to two weeks, TNBC cell lines.
A further experiment concerns the target T3, MEK5 (Homo sapiens, UniProt Q13163).
T3 construct: endogenous in cells; host or cells: MDA-MB-231, MDA-MB-468, SUM159
T3 sequence (Q13163 1-448): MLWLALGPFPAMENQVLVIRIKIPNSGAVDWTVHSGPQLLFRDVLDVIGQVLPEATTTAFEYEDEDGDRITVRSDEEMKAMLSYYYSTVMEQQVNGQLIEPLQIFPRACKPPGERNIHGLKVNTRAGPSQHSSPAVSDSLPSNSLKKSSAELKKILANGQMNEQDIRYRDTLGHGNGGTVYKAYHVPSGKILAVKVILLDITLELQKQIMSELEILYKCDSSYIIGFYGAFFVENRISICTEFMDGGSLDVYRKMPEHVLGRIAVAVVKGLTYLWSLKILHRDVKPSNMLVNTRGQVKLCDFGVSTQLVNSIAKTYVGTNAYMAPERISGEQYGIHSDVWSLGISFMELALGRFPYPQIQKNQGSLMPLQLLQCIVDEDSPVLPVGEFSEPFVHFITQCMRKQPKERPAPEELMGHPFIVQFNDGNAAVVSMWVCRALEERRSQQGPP
The experiment can be described thus: Repeated dosing of OS1 up to 2 weeks, immunoblotting (FIG. 9): MEK5. Conditions: 1 μM every 48 h for up to two weeks, TNBC cell lines. On the procedure: as §2

The next experiment addresses T4, p-ERK5 (Homo sapiens, UniProt Q13164).
T4 construct: endogenous in cells; host or cells: MDA-MB-231, MDA-MB-468, SUM159
In words: Immunoblotting in 3 TNBC cell lines (FIG. 8): phospho-ERK5 levels. As to conditions: at higher doses. On the procedure: as §4, §5

Experiment [9] concerns the target T2, BRD4. In words: Immunoblotting, comparison with Example 7 of WO2021061894 in MDA-MB-468 cells (FIGS. 12 and 13): BRD4. Also on record: endogenous in cells; host or cells: MDA-MB-231, MDA-MB-468, SUM159. As to conditions: 48 hours after a single dose, Comparative Example 7 at 5 μM. On the procedure:
as §2, §3

For experiment [10], the target named is T1, ERK5. In words: Immunoblotting, 8 point dose response to OS1 in 3 TNBC cell lines (FIG. 8): ERK5 levels. On the set-up: endogenous in cells; host or cells: MDA-MB-231, MDA-MB-468, SUM159. The method, then: as §4, §5
The mark [11] stands for this setting: 24 h treatment, mRNA relative to PGK1 or ACTB, three TNBC cell lines.

This is an account of results in patent US20250154157A1, “HETEROCYCLIC COMPOUNDS USEFUL FOR TREATING A ERK5-MEDIATED DISEASE” (Cancer Research Technology Limited, priority 2022, published 2025).

T1 sequence (Q13164 whole entry): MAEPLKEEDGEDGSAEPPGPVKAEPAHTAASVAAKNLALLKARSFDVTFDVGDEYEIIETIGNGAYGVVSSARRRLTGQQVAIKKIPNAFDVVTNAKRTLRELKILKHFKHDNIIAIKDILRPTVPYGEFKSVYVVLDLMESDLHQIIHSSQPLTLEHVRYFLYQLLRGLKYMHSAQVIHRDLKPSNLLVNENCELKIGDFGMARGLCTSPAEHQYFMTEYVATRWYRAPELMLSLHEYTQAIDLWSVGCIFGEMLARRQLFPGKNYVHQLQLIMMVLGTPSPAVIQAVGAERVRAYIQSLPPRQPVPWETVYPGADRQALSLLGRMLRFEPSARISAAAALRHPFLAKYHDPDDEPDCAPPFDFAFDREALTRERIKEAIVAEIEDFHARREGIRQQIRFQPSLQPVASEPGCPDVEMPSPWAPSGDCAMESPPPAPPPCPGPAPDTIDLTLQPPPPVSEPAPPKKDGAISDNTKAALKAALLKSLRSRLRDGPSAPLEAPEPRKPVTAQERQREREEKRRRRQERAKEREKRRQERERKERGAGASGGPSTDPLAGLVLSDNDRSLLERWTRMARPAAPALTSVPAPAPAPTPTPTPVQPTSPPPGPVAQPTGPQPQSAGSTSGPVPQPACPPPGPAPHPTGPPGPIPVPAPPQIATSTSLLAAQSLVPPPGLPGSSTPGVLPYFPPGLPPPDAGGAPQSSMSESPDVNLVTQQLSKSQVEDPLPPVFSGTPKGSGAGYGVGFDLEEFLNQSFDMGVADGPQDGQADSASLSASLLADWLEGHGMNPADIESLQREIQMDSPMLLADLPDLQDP
T4 sequence (Q13164 whole entry): as above

As to `CCOc1cc(C(=O)N2CCC(N3CCN(C)CC3)CC2)ccc1Nc1ncc2c(n1)N(S(C)(=O)=O)c1ccccc1C(=O)N2C` [AX15836, 5,11-Dihydro-2-[[2-ethoxy-4-[[4-(4-methyl-1-piperazinyl)-1-piperidinyl]carbonyl]phenyl]amino]-5-methyl,11-(methylsulfonyl)-6H-pyrimido[4,5-b][1,4]benzodiazepin-6-one, reference compound], the “expression of genes that promote EMT, migration and metastatic behaviour (N-cadherin, cytokeratin, B1-integrin), angiogenesis (VEGF) and pro-tumour inflammation (IL6, IL1b)” value in experiment [1] (setting [11]) is on record as “not”. Besides, the “effect on morphology of TNBC cells” value in experiment [2] is “does not”.

For the compound `CCOc1cc(C(=O)N2CCC(N3CCN(CCCCCc4cccc5c4C(=O)N(C4CCC(=O)NC4=O)C5=O)CC3)CC2)ccc1Nc1ncc2c(n1)N(S(C)(=O)=O)c1ccccc1C(=O)N2C` (stereo not drawn) [OS1, 2-(2,6-Dioxopiperidin-3-yl)-4-(5-(4-(1-(3-ethoxy-4-((5-methyl-11-(methylsulfonyl)-6-oxo-6,11-dihydro-5H-benzo[e]pyrimido[5,4-b][1,4]diazepin-2-yl)amino)benzoyl)piperidin-4-yl)piperazin-1-yl)pentyl)isoindoline-1,3-dione], the “ERK5 staining (green), immunofluorescence” value on ERK5 [3] is “loss of ERK5 staining”. In addition, the “dose efficacious at degrading ERK5 (analogous ERK5 degradation)” value on ERK5 [4] turned out to be 0.1 μM. Also, the “dose most effective in affecting gene expression” value in experiment [1] (0.1 or 1 μM tested, 24 h) came to 1 µM. In experiment [1] (setting [11]), the “expression of genes that block EMT, migration and metastatic behaviour (E-cadherin)” value is given as “increase in expression”; the “expression of genes that promote EMT, migration and metastatic behaviour (N-cadherin, cytokeratin, B1-integrin), angiogenesis (VEGF) and pro-tumour inflammation (IL6, IL1b)” value is given as “induces a loss of expression”. On BRD4 [5], the “effect of repeated dosing on BRD4” value was “no effect”. Also, the “off target effects on known off-target of literature ERK5 inhibitors (BRD4)” value on BRD4 [6] is “no off target effects”. The “off target effects on structurally similar proteins (ERK1/2)” value with ERK1/2 [7] is reported as “no off target effects”. Moreover, the “effect of repeated dosing on ERK1/2” value with ERK1/2 [8] is listed as “no effect”. Also, the “effect of repeated dosing on MEK5” value on MEK5 is reported as “unaffected”. Also, the “kinase inhibitor activity (p-ERK5 on immunoblot)” value at p-ERK5 is “reduction in p-ERK5”. The “effect on morphology of TNBC cells” value in experiment [2] is “affects morphology”. Moreover, the “degradation of off-target BRD4” value at BRD4 [9] was “do not cause degradation”. In addition, at ERK5 [10] (TNBC cell lines), the “dose inducing the hook effect” value was 10 µM and the “most effective dose for ERK5 degradation” value came out at 1 µM. Moreover, the ERK5 degraded at ERK5 [10] (range of TNBC cell lines (MDA-MB-231, MDA-MB-468, SUM159), western blot relative to β-actin) was above 90%.
